Reference: US10934286B2, “Heterocyclic sulfones as ROR gamma modulators” (BRISTOL-MYERS SQUIBB COMPANY, priority 2016, dated 2021)

Target: T1, RORγ receptor (Homo sapiens, UniProt P51449)
T1 construct: Jurkat pEx/Gal/hRORγ CLBD/HYG pG51uc/blast; expressed in transfected cells
T1 sequence (P51449 269-508 limits assumed): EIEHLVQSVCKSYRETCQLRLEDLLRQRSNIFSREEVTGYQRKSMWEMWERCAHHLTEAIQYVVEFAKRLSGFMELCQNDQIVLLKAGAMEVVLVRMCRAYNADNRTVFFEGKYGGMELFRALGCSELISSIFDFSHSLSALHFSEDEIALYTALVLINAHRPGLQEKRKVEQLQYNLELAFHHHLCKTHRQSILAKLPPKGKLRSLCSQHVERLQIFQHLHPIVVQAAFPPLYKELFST
Assay: General RORγ Gal4 reporter assay (inverse agonist activity, inhibition of luminescence)
Assay type: cell-based
Conditions: Gal4-luciferase reporter in Jurkat cells stably over-expressing hRORγ LBD; overnight incubation; 40 μM to 0.67 nM
Method: General RORγ Gal4 Reporter Assay Inverse agonist activity of potential ligands to RORγ was measured by inhibition of luminescence in a Gal4-luciferase reporter assay in Jurkat cells.
The following day, cells were lysed with 10 μL of Steady-Glo Luciferase Assay System (Promega Cat. No. EZ550), and analyzed immediately. IC50 values were determined.

SMILES | IC50 [µM]
CC(C)(O)CN1C(=O)[C@H](F)C[C@H]1C(=O)N1CCC2(S(=O)(=O)c3ccccc3)c3ccc(C(F)(C(F)(F)F)C(F)(F)F)nc3CCC12 (stereo partly shown) [Example 53] | 0.018
CC(C)(O)CN1C(=O)CCN1C(=O)N1CCC2(S(=O)(=O)c3ccccc3)c3ccc(C(F)(C(F)(F)F)C(F)(F)F)nc3CCC12 (stereo not shown) [Example 58] | 0.012
[2H]C([2H])([2H])N1C(=O)[C@H](F)C[C@H]1C(=O)N1CCC2(S(=O)(=O)c3cccc(F)c3)c3ccc(C(F)(C(F)(F)F)C(F)(F)F)nc3CCC12 (stereo partly shown) [Example 63] | 0.013
[2H]C([2H])([2H])N1C(=O)[C@H](F)C[C@H]1C(=O)N1CCC2(S(=O)(=O)c3ccc(F)cc3)c3ccc(C(F)(C(F)(F)F)C(F)(F)F)nc3CCC12 (stereo partly shown) [Example 64] | 0.024
[2H]C([2H])([2H])N1C(=O)[C@H](F)C[C@H]1C(=O)N1CCC2(S(=O)(=O)c3ccccc3)c3ccc(C(F)(C(F)(F)F)C(F)(F)F)nc3CCC12 (stereo partly shown) [Example 66] | 0.031

Second part, the compound after the results:

IC50 [µM] | SMILES
0.026 | CC(C)(O)CN1C(=O)[C@H](F)C[C@H]1C(=O)N1CCC2(S(=O)(=O)c3cccc(F)c3)c3ccc(C(F)(C(F)(F)F)C(F)(F)F)nc3CCC12 (stereo partly shown) [Example 48]
0.018 | CC(C)(O)CN1C(=O)[C@@H]2C[C@@H]2[C@H]1C(=O)N1CCC2(S(=O)(=O)c3cccc(F)c3)c3ccc(C(F)(C(F)(F)F)C(F)(F)F)nc3CCC12 (stereo partly shown) [Example 49]
0.014 | CC(C)(O)CN1C(=O)[C@H](F)C[C@H]1C(=O)N1CCC2(S(=O)(=O)c3cccc(F)c3)c3cnc(C(F)(C(F)(F)F)C(F)(F)F)cc3CCC12 (stereo partly shown) [Example 50]
1.81 | CC(C)(O)CN1C(=O)[C@@H]2C[C@@H]2[C@H]1C(=O)N1CCC2(S(=O)(=O)c3cccc(F)c3)c3cnc(C(F)(C(F)(F)F)C(F)(F)F)cc3CCC12 (stereo partly shown) [Example 52]
0.031 | CC(C)(O)CN1C(=O)CCN1C(=O)N1CCC2(S(=O)(=O)c3ccc(F)cc3)c3cnc(C(F)(C(F)(F)F)C(F)(F)F)cc3CCC12 (stereo not shown) [Example 55]
0.028 | CC(C)(O)CN1C(=O)CCN1C(=O)N1CCC2(S(=O)(=O)c3cccc(F)c3)c3ccc(C(F)(C(F)(F)F)C(F)(F)F)nc3CCC12 (stereo not shown) [Example 56]
0.021 | CC(C)(O)CN1C(=O)CCN1C(=O)N1CCC2(S(=O)(=O)c3cccc(F)c3)c3cnc(C(F)(C(F)(F)F)C(F)(F)F)cc3CCC12 (stereo not shown) [Example 57]
0.091 | [2H]C([2H])([2H])N1C(=O)[C@H](F)C[C@H]1C(=O)N1CCC2(S(=O)(=O)c3cccc(F)c3)c3cnc(C(F)(C(F)(F)F)C(F)(F)F)cc3CCC12 (stereo partly shown) [Example 65]
